US5972947A, “Oxazolidinone derivatives, processes for the production thereof and pharmaceutical agents containing these compounds” (Roche Diagnostics GmbH, priority 1995, dated 1999)

Target: GpIIb/IIIa receptor (Homo sapiens, UniProt P05106+P08514)
Experiment: GpIIb/IIIa fibrinogen ELISA (inhibition of the fibrinogen-GpIIb/IIIa interaction)
Assay type: binding
Conditions: isolated activated GpIIb/IIIa receptor coated at 2 μg/ml; fibrinogen ligand, 1 hour incubation; OD at 405 nm
Procedure: Microtitre plates were coated overnight with 2 μg/ml isolated activated GpIIb/IIIa receptor. After the unbound receptor had been removed by several washing steps, the surface of the plate was blocked with 1% casein and washed again. The test substance was added at the necessary concentrations, the plates were subsequently incubated for 10 minutes while shaking in a linear shaker. The natural ligand of the GpIIb/IIIa receptor fibrinogen was added thereto. After incubating for 1 hour, unbound fibrinogen was removed by several washing steps and bound fibrinogen was determined in an ELISA reader by determining the change in optical density at 405 nm caused by a peroxidase conjugated monoclonal antibody. Inhibition of the fibrinogen-GpIIb/IIIa interaction leads to low optical densities. The IC50 value was determined by means of a concentration-effect curve.
The GpIIb/IIIa fibrinogen ELISA is a modification of the assay which is described in the following references:
Nachman, R. L. & Leung, L. L. K. (1982): Complex formation of platelet membrane glycoproteins IIb and IIIa with fibrinogen. J. Clin. Invest. 69: 263-269.
Wright, P. S. et al. […]; An echistatin C-terminal peptide activated GpIIb/IIIa binding to fibrinogen, fibronectin, vitronectin and collagen type I and type IV. Biochem. J. 293: 262-267.

Chain of GpIIb/IIIa receptor (P08514 32-887 limits assumed): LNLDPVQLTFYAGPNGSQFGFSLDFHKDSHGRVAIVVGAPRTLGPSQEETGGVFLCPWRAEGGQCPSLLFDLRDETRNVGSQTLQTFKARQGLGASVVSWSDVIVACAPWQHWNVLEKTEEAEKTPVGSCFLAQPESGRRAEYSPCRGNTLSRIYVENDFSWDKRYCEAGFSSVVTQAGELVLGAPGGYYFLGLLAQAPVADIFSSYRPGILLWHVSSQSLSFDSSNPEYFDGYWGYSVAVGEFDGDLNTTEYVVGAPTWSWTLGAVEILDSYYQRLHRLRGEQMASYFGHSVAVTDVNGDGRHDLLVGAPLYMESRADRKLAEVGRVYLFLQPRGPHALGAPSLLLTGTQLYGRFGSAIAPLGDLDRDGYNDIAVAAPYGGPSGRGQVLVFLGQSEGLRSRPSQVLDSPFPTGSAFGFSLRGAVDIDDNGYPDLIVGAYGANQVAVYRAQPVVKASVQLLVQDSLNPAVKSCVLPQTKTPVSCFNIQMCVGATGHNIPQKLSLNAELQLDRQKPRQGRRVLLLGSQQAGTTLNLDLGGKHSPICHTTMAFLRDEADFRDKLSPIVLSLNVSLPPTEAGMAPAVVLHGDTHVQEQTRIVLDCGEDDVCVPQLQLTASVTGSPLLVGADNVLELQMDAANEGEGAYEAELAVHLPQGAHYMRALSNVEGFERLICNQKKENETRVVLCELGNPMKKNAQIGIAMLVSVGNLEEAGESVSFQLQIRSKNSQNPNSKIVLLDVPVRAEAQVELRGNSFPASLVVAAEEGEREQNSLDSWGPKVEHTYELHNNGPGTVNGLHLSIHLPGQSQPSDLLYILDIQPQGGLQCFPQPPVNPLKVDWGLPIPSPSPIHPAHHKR
Chain of GpIIb/IIIa receptor (P08514 891-1039 partner limits assumed): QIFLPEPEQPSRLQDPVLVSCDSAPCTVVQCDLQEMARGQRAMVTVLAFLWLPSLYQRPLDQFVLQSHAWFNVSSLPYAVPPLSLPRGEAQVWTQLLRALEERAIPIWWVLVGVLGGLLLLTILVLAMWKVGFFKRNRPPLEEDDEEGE
Chain of GpIIb/IIIa receptor (P05106 27-788): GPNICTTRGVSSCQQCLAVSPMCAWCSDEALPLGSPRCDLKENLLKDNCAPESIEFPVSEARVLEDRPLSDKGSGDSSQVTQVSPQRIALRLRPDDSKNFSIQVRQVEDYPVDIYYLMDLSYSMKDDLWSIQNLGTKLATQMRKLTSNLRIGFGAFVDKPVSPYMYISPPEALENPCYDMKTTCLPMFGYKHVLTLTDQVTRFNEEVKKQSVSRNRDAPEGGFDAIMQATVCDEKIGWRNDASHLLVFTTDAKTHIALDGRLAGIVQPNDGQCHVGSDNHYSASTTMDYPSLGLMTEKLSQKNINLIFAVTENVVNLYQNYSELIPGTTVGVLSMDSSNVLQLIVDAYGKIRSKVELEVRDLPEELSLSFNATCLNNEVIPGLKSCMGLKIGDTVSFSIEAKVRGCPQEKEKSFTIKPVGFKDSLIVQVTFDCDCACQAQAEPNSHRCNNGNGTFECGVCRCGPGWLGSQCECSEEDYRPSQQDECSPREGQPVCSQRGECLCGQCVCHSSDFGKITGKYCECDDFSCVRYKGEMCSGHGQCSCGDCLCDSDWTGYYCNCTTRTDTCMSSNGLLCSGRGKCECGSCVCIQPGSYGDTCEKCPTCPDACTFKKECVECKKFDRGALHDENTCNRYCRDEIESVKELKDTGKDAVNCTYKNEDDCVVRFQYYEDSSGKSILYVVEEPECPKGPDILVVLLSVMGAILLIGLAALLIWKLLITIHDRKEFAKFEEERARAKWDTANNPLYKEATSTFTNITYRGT

SMILES: O=C(O)C1CCN(C[C@H]2CN(C3CCN(c4ccncc4)CC3)C(=O)O2)CC1 [Example 1, 1-[(5S)-2-oxo-3-(3,4,5,6-tetrahydro-2H-[1,4']bipyridinyl-4-yl)-oxazolidin-5-ylmethyl]-piperidine-4-carboxylic acid]
- IC50: < 300 nM

SMILES: C[C@]1(CN2CCC(C(=O)O)CC2)CN(C2CCN(c3ccncc3)CC2)C(=O)O1 [No. 78, (5S)-1-[5-Methyl-2-oxo-3-(3,4,5,6-tetrahydro-2H-[1,4']bipyridinyl-4-yl)-oxazolidin-5-ylmethyl]-piperidine-4-carboxylic acid]
- IC50: 600 nM

SMILES: O=C(O)C1CCN(CC2CN(C3CCN(c4ccnc(NCc5ccccc5)n4)CC3)C(=O)O2)CC1 (stereo not drawn) [Example 9, 1-{3-[1-(2-Benzylamino-pyrimidin-4-yl)-piperidin-4-yl]-2-oxo-oxazolidin-5-ylmethyl}-piperidine-4-carboxylic acid]
- IC50: 70 nM

SMILES: O=C(O)C1CCN(CC2OC(=O)N(C3CCN(c4ccncc4)CC3)C2c2cccc(C(F)(F)F)c2)CC1 (stereo not drawn) [No. 79, 1-[2-Oxo-3-(3,4,5,6-tetrahydro-2H-[1,4']bipyridinyl-4-yl)-4-(3-trifluoromethylphenyl)-oxazolidin-5-ylmethyl]-piperidine-4-carboxylic acid]
- IC50: 1300 nM

SMILES: O=C(O)C1CCN(CC2CN(C3CCN(c4ccncc4)CC3)C(=O)O2)CC1 (racemic) [Example 2, 1-[(rac]-2-Oxo-3-(3,4,5,6-tetrahydro-2H-[1,4']bipyridinyl-4-yl)-oxazolidin-5-ylmethyl]-piperidine-4-carboxylic acid]
- IC50: < 300 nM

SMILES: O=C(O)C1CCN(CC2CN(C3CCN(c4ccncn4)CC3)C(=O)O2)CC1 (stereo not drawn) [Example 8, 1-[2-Oxo-3-(1-pyrimidin-4-yl-piperidin-4-yl)-oxazolidin-5-ylmethyl]-piperidine-4-carboxylic acid]
- IC50: 300 nM

SMILES: O=C(O)C1CCC(O)(CC2CN(C3CCN(c4ccncc4)CC3)C(=O)O2)CC1 (stereo not drawn) [10 c)]
- IC50: < 300 nM

SMILES: CC1C(CN2CCC(C(=O)O)CC2)OC(=O)N1C1CCN(c2ccncc2)CC1 (stereo not drawn) [Example 7, 1-[4-Methyl-2-oxo-3-(3,4,5,6-tetrahydro-2H-[1,4']bipyridinyl-4-yl)-oxazolidin-5-ylmethyl]-piperidine-4-carboxylic acid]
- IC50: < 300 nM

SMILES: O=C(O)C1CCN(CC2OC(=O)N(C3CCN(c4ccncc4)CC3)C2c2ccc(Cl)cc2)CC1 (stereo not drawn) [No. 80, 1-[4-(4-Chlorophenyl)-2-oxo-3-(3,4,5,6-tetrahydro-2H-[1,4']bipyridinyl-4-yl)-oxazolidin-5-ylmethyl]-piperidine-4-carboxylic acid]
- IC50: 500 nM

SMILES: O=C(O)C1CCN(CC2OC(=O)N(C3CCN(c4ccncc4)CC3)C2c2ccccc2)CC1 (stereo not drawn) [10 a)]
- IC50: 300 nM

SMILES: O=C(O)CC1(O)CCN(CC2CN(C3CCN(c4ccncc4)CC3)C(=O)O2)CC1 (stereo not drawn) [Example 5, {4-Hydroxy-1-[2-oxo-3-(3,4,5,6-tetrahydro-2H-[1,4']bipyridinyl-4-yl)-oxazolidin-5-ylmethyl]-piperidin-4-yl}acetic acid]
- IC50: 1000 nM

SMILES: O=C(O)C=C1CCN(CC2CN(C3CCN(c4ccncc4)CC3)C(=O)O2)CC1 (racemic) [Example 3, {1-[(rac)-2-Oxo-3-(3,4,5,6-tetrahydro-2H-[1,4']bipyridinyl-4yl)-oxazolidin-5-ylmethyl]-piperidin-4-ylidene}-acetic acid]
- IC50: 1400 nM
